Results: ChEMBL document CHEMBL5579840, “Optimization of diastereomeric dihydropyridines as antimalarials” (Eur J Med Chem, 2024)
Calls of active or inactive are those of the source. The rule behind the calls is not given here.

Assays:
Plasmodium falciparum [1] = assay: Antimalarial activity against chloroquine-sensitive Plasmodium falciparum 3D7 infected in erythroctes incubated for 72 hrs by SYBR green 1 based spectrofluorometer; assay type: functional, organism-based, Erythrocyte
Plasmodium falciparum [2] = assay: Antimalarial activity against chloroquine-resistant Plasmodium falciparum K1 infected in erythroctes incubated for 72 hrs by SYBR green 1 based spectrofluorometer; assay type: functional, organism-based, Erythrocyte
Plasmodium berghei [3] = assay: Antiplasmodial activity against Plasmodium berghei KBG-173 infected in male mouse assessed as inhibition of parasitemia at 50 mg/kg, po administered as single dose on day 1 post exposure and measured on day 3 post exposure relative to control; assay type: functional; settings: KBG-173, 72 h, time 3 day
Plasmodium berghei [4] = assay: Antiplasmodial activity against Plasmodium berghei KBG-173 infected in male mouse assessed as inhibition of parasitemia at 50 mg/kg, po administered as single dose on day 1 post exposure and measured on day 6 post exposure relative to control; assay type: functional; settings: KBG-173, 72 h, time 3 day
Plasmodium falciparum [5] = assay: Antimalarial activity against chloroquine and pyrimethamine-resistant Plasmodium falciparum W2 infected in erythroctes incubated for 72 hrs by SYBR green 1 based spectrofluorometer; assay type: functional, organism-based; settings: for EC50: W2, 72 h
Plasmodium falciparum [6] = assay: Antimalarial activity against chloroquine,pyrimethamine,mefloquine and atovaquine-resistant Plasmodium falciparum TM90-C2B infected in erythroctes incubated for 72 hrs by SYBR green 1 based spectrofluorometer; assay type: functional, organism-based
Plasmodium falciparum [7] = assay: Antiplasmodial activity against chloroquine-sensitive Plasmodium falciparum 3D7; assay type: functional, organism-based
Plasmodium falciparum [8] = assay: Antimalarial activity against Plasmodium falciparum W2 infected in RBC assessed as inhibition of parasite growth incubated for 72 hrs by YOYO1 staining based LSR II flow cytometer; assay type: functional, organism-based; settings: W2, Erythrocyte
Plasmodium falciparum [9] = assay: Fold resistance, ratio of EC50 for antiplasmodial activity against Plasmodium falciparum W2 infected in RBC assessed as inhibition of parasite growth incubated for 22 days to EC50 for antiplasmodial activity against Plasmodium falciparum W2 infected in RBC assessed as inhibition of parasite growth incubated for 72 hrs; assay type: functional
Plasmodium falciparum [10] = assay: Antimalarial activity against Plasmodium falciparum W2 infected in RBC assessed as reduction in parasitemia at 700 nM measured immediately by YOYO1 staining based LSR II flow cytometer; assay type: functional, organism-based
Plasmodium falciparum [11] = assay: Antimalarial activity against Plasmodium falciparum W2 infected in RBC assessed as parasitemia at 700 nM measured on day 4 by microscopic analysis relative to control; assay type: functional; settings: time 4 day
Plasmodium falciparum [12] = assay: Antimalarial activity against Plasmodium falciparum W2 infected in RBC assessed as inhibition of growth incubated for 22 days by YOYO1 staining based LSR II flow cytometer; assay type: functional, organism-based; settings: W2, Erythrocyte, 528 h
[13] = Cytotoxicity against mouse J774.A1 cells; assay type: toxicity, cell-based
Plasmodium berghei [14] = assay: Antimalarial activity against liver stage Plasmodium berghei sporozoites expressing luciferase infected in human HepG2 cells; assay type: functional, organism-based
[15] = Plasmodium falciparum, 3D7, Erythrocyte, 72 h
[16] = Plasmodium falciparum, K1, Erythrocyte, 72 h

SMILES | EC50 (Plasmodium falciparum [1]; erythrocyte) [nM] | EC50 (Plasmodium falciparum [2]; erythrocyte) [nM] | inhibition in vivo at 50 mg/kg (Plasmodium berghei [3]) [%] | inhibition in vivo at 50 mg/kg (Plasmodium berghei [4]) [%] | EC50 [13] [µM] | other results
CCOC(=O)C1=C(C)NC2=C(C(=O)CC(c3ccc(Cl)c(OC)c3)C2)C1c1ccc(Cl)cc1C (stereo in doubt; 41B) | 9.4 | 9.7 | < 10 | < 10 |  | 
CCCC1=C(C(=O)OCC)C(c2ccccc2Cl)C2=C(CC(c3ccc(OC)c(OC)c3)CC2=O)N1 (stereo in doubt; 43B) | 0.8 | 1.3 | < 10 | < 10 |  | EC50 (Plasmodium falciparum [5]): 3 nM; EC50 (Plasmodium falciparum [6]): 4.4 nM
CCOc1ccc(N(C(C)=O)C2=C(N(C)C)C(=O)c3ccccc3C2=O)cc1 |  |  |  |  |  | EC50 (Plasmodium falciparum [7]): < 50 nM
CCOC(=O)C1=C(C)NC2=C(C(=O)CC(c3ccc(Cl)c(OC)c3)C2)C1c1ccccc1Cl (stereo in doubt; 39B) [listing 1 of 2 here] | 18.5 | 22.3 | < 10 | < 10 |  | 
CCOC(=O)C1=C(C)NC2=C(C(=O)OC(c3ccc(OC)c(OC)c3)C2)C1c1ccc(Cl)cc1 (stereo in doubt; 5B) |  |  |  |  |  | Activity (Plasmodium falciparum [5]): Active; Activity (Plasmodium falciparum [6]): Active
CCOC(=O)C1=C(C)NC2=C(C(=O)OC(c3ccc(OC)c(OC)c3)C2)C1c1ccccc1Cl (stereo in doubt; 3B) [listing 1 of 2 here] | 260 | 53.9 | 100 | 77.6 |  | 
CCCOC(=O)C1=C(C)NC2=C(C(=O)CC(c3ccc(OC)c(OC)c3)C2)C1c1ccccc1F (centres undefined) |  |  |  |  |  | EC50 (Plasmodium falciparum [8]): 8.4 nM; Ratio EC50 (Plasmodium falciparum [9]): 311; EC50 (Plasmodium falciparum [7]): < 50 nM; Activity (Plasmodium falciparum [10]): Active; Activity (Plasmodium falciparum [11]): 0%; EC50 (Plasmodium falciparum [12]): 2610 nM
CCOC(=O)C1=C(C)NC2=C(C(=O)OC(c3ccc(OC)c(OC)c3)C2)C1c1ccc(Cl)cc1C (stereo in doubt; 38B) | 10.6 | 29.1 | < 10 | < 10 |  | 
CCOC(=O)C1=C(C)NC2=C(C(=O)OC(c3ccc(Cl)c(OC)c3)C2)C1c1ccc(Cl)cc1C (stereo in doubt; 42B) | 58 | 38.4 | 34 | 5.83 |  | 
CCCC1=C(C(=O)OCC)C(c2ccc(Cl)cc2C)C2=C(CC(c3ccc(OC)c(OC)c3)OC2=O)N1 (stereo in doubt; 45B) | 5.1 | 3.9 | < 10 | < 10 |  | 
CCN(CC)Cc1cc(Nc2ccnc3cc(Cl)ccc23)ccc1O [AMODIAQUINE] |  |  | 100 | 100 |  | 
CCOC(=O)C1=C(C)NC2=C(C(=O)OC(c3ccc(OC)c(OC)c3)C2)C1c1ccccc1 (stereo in doubt; 1A) | > 7400 | > 7400 |  |  | > 20 | 
CCCC1=C(C(=O)OCC)C(c2ccc(Cl)cc2C)C2=C(CC(c3ccc(Cl)c(OC)c3)CC2=O)N1 (stereo in doubt; 46A) | 319 | 244 |  |  | > 20 | 
CCOC(=O)C1=C(C)NC2=C(C(=O)OC(c3ccc(OC)c(OC)c3)C2)C1c1ccccc1C (stereo in doubt; 6B) |  |  |  |  |  | Activity (Plasmodium falciparum [5]): Active; Activity (Plasmodium falciparum [6]): Active
CCOC(=O)C1=C(C)NC2=C(C(=O)CC(c3ccc(Cl)c(OC)c3)C2)C1c1ccc(Cl)cc1C (stereo in doubt; 41A) | 550 | 385 |  |  | > 20 | 
CCOC(=O)C1=C(C)NC2=C(C(=O)OC(c3cc(OC)c(OC)c(OC)c3)C2)C1c1ccccc1Cl (stereo in doubt; 54A) | 322 | 315 |  |  | > 20 | 
CCOC(=O)C1=C(C)NC2=C(C(=O)OC(c3ccc(C)cc3)C2)C1c1ccccc1Cl (stereo in doubt; 23A) |  | > 5000 |  |  | > 20 | EC50 (Plasmodium falciparum [1]; [15]): > 5000 nM
CCOC(=O)C1=C(C)NC2=C(C(=O)OC(c3ccc(OC)c(OC)c3)C2)C1c1cccc2ccccc12 (centres undefined) |  |  |  |  | > 20 | EC50 (Plasmodium falciparum [1]; [15]): > 10000 nM; EC50 (Plasmodium falciparum [2]; [16]): > 10000 nM
CCCC1=C(C(=O)OCC)C(c2ccc(Cl)cc2C)C2=C(CC(c3ccc(Cl)c(OC)c3)CC2=O)N1 (stereo in doubt; 46B) | 10.4 | 19.8 | < 10 | < 10 |  | 

SMILES | EC50 (Plasmodium falciparum [1]; erythrocyte) [nM] | EC50 (Plasmodium falciparum [2]; erythrocyte) [nM] | inhibition in vivo at 50 mg/kg (Plasmodium berghei [3]) [%] | inhibition in vivo at 50 mg/kg (Plasmodium berghei [4]) [%] | EC50 [13] [µM] | other results
CCOC(=O)C1=C(C)NC2=C(C(=O)OC(c3ccc(OC)c(OC)c3)C2)C1c1ccc(-c2ccccc2)cc1 (centres undefined) |  |  |  |  | > 20 | EC50 (Plasmodium falciparum [1]; [15]): > 10000 nM; EC50 (Plasmodium falciparum [2]; [16]): > 10000 nM
CCOC(=O)C1=C(C)NC2=C(C(=O)OC(c3ccc(OC)c(OC)c3)C2)C1c1ccccc1C (stereo in doubt; 6A) | 1270 | 2050 |  |  | > 20 | 
CCCC1=C(C(=O)OCC)C(c2ccccc2Cl)C2=C(CC(c3ccc(OC)c(OC)c3)OC2=O)N1 (stereo in doubt; 32B) | 16.1 | 9.2 | < 10 | < 10 |  | EC50 (Plasmodium falciparum [5]): < 100 nM; EC50 (Plasmodium falciparum [6]): < 100 nM
CCCOC(=O)C1=C(C)NC2=C(C(=O)OC(c3ccc(OC)c(OC)c3)C2)C1c1ccccc1Cl (stereo in doubt; 29A) | 2360 | > 7000 |  |  | > 20 | 
COCC1=C(C(=O)OC)C(c2ccc(Cl)cc2C)C2=C(CC(c3ccc(OC)c(OC)c3)CC2=O)N1 (stereo in doubt; 51B) [listing 1 of 2 here] |  |  |  |  |  | Activity (Plasmodium berghei [14]): inactive
COc1cc(OC)c(NC(=O)[C@H]2c3ccccc3C(=O)N(CC(C)C)[C@@H]2c2cccs2)cc1Cl |  |  |  |  |  | EC50 (Plasmodium falciparum [7]): < 50 nM
CCOC(=O)C1=C(C)NC2=C(C(=O)CC(c3ccc(OC)c(OC)c3)C2)C1c1ccc(Cl)cc1C (stereo in doubt; 37B) | 14.5 | 15.9 | < 10 | < 10 |  | 
CCOC(=O)C1=C(C)NC2=C(C(=O)CC(c3ccc(Cl)c(OC)c3)C2)C1c1ccccc1Cl (stereo in doubt; 39B) [listing 2 of 2 here] |  |  |  |  |  | Activity (Plasmodium berghei [14]): inactive
CCCC1=C(C(=O)OCC)C(c2ccc(Cl)cc2C)C2=C(CC(c3ccc(Cl)c(OC)c3)OC2=O)N1 (stereo in doubt; 47B) | 22.7 | 21.5 | < 10 | < 10 |  | 
CCOC(=O)C1=C(C)NC2=C(C(=O)OC(c3ccc(OC)c(OC)c3)C2)C1c1ccc(C)cc1 (stereo in doubt; 8A) | > 10000 | > 10000 |  |  | > 20 | 
CCCC1=C(C(=O)OCC)C(c2ccc(Cl)cc2C)C2=C(CC(c3ccc(OC)c(OC)c3)CC2=O)N1 (stereo in doubt; 44B) | 3.4 | 11.1 | 34 | 6.76 |  | 
COC(=O)C1=C(C)NC2=C(C(=O)OC(c3ccc(OC)c(OC)c3)C2)C1c1ccccc1Cl (stereo in doubt; 28A) | > 8500 | > 8500 |  |  | > 20 | 
CCOC(=O)C1=C(C)NC2=C(C(=O)OC(c3ccc(OC)c(OC)c3)C2)C1c1cccc(OC)c1 (centres undefined) |  |  |  |  | > 20 | EC50 (Plasmodium falciparum [1]; [15]): > 10000 nM; EC50 (Plasmodium falciparum [2]; [16]): > 10000 nM
CCOC(=O)C1=C(C)NC2=C(C(=O)OC(c3ccc(OC)c(OC)c3)C2)C1c1ccc(Cl)cc1 (stereo in doubt; 5A) | 769 | 633 |  |  | > 20 | 
COCC1=C(C(=O)OC)C(c2ccc(Cl)cc2C)C2=C(CC(c3ccc(OC)c(OC)c3)CC2=O)N1 (stereo in doubt; 51B) [listing 2 of 2 here] | 2.5 | 6.2 | 100 | < 10 |  | 
CCOC(=O)C1=C(C)NC2=C(C(=O)OC(c3cccc(C)c3)C2)C1c1ccccc1Cl (stereo in doubt; 22A) |  |  |  |  | > 20 | EC50 (Plasmodium falciparum [1]; [15]): > 5000 nM; EC50 (Plasmodium falciparum [2]; [16]): > 5000 nM
COCC1=C(C(=O)OC)C(c2ccc(Cl)cc2C)C2=C(CC(c3ccc(OC)c(OC)c3)CC2=O)N1 (stereo in doubt; 51A) | 39.6 | 21.6 |  |  | > 20 | 
CCOC(=O)C1=C(C)NC2=C(C(=O)OC(c3ccc(OC)c(OC)c3)C2)C1c1ccccc1Cl (stereo in doubt; 3B) [listing 2 of 2 here] |  |  |  |  |  | Activity (Plasmodium berghei [14]): inactive; Activity (Plasmodium falciparum [5]): Active; Activity (Plasmodium falciparum [6]): Active
CCOC(=O)C1=C(C)NC2=C(C(=O)OC(c3ccc(Cl)c(OC)c3)C2)C1c1ccccc1Cl (stereo in doubt; 40B) | 135 | 217 | 66 | < 10 |  | 
